According to ChEMBL document CHEMBL3870316, “Design, synthesis and structure-activity relationships of novel 4-phenoxyquinoline derivatives containing 1,2,4-triazolone moiety as c-Met kinase inhibitors” (Eur J Med Chem, 2016):

Assays:
[1] = Cytotoxicity against c-Met over-expressed human HT-29 cells assessed as cell growth inhibition after 72 hrs by MTT assay; conditions: HT-29, 72 h
[2] = Cytotoxicity against c-Met over-expressed human H460 cells assessed as cell growth inhibition after 72 hrs by MTT assay; conditions: NCI-H460, 72 h
[3] = Cytotoxicity against c-Met over-expressed human A549 cells assessed as cell growth inhibition after 72 hrs by MTT assay; conditions: A549, 72 h
[4] = Cytotoxicity against c-Met over-expressed human MKN45 cells assessed as cell growth inhibition after 72 hrs by MTT assay; conditions: MKN-45, 72 h

SMILES	IC50 [1] [µM]	IC50 [2] [µM]	IC50 [3] [µM]	IC50 [4] [µM]
CCn1c(C(=O)Nc2ccc(Oc3ccnc4cc(OCCCN5CCC(C)CC5)c(OC)cc34)c(F)c2)nn(-c2ccccc2OC(F)(F)F)c1=O	0.16	0.2	0.22	0.087
CCn1c(C(=O)Nc2ccc(Oc3ccnc4cc(OCCCN5CCCCC5)c(OC)cc34)c(F)c2)nn(-c2ccccc2OC(F)(F)F)c1=O	0.19	0.25	0.19	0.12
COc1cc2c(Oc3ccc(NC(=O)c4nn(-c5ccc(Cl)cc5Cl)c(=O)n4C)cc3F)ccnc2cc1OCCCN1CCCCC1	0.34	0.38	0.32	0.29
COc1cc2c(Oc3ccc(NC(=O)c4nn(-c5ccccc5)c(=O)n4C)cc3F)ccnc2cc1OCCCN1CCCC1	1.45	1.3	0.99	1.16
COc1ccc(-n2nc(C(=O)Nc3ccc(Oc4ccnc5cc(OCCCN6CCCCC6)c(OC)cc45)c(F)c3)n(C)c2=O)cc1	3.12	2.84	0.96	0.88
COc1cc2c(Oc3ccc(NC(=O)c4nn(-c5ccccc5Cl)c(=O)n4C4CC4)cc3F)ccnc2cc1OCCCN1CCN(C)CC1	0.19	0.23	0.13	0.063
COc1cc2c(Oc3ccc(NC(=O)c4nn(-c5ccccc5OC(F)(F)F)c(=O)n4C)cc3F)ccnc2cc1OCCCN1CCCCC1	0.21	0.29	0.13	0.08
COc1cc2c(Oc3ccc(NC(=O)c4nn(-c5ccccc5Cl)c(=O)n4C)cc3F)ccnc2cc1OCCCN1CCC(C)CC1	0.15	0.2	0.24	0.35
COc1cc2c(Oc3ccc(NC(=O)c4nn(-c5ccccc5)c(=O)n4C)cc3F)ccnc2cc1OCCCN1CCCCC1	0.87	0.78	0.45	0.46
COc1cc2c(Oc3ccc(NC(=O)c4nn(-c5ccccc5F)c(=O)n4C)cc3F)ccnc2cc1OCCCN1CCCCC1	0.16	0.26	0.22	0.07
COc1cc2c(Oc3ccc(NC(=O)c4nn(-c5ccccc5F)c(=O)n4C)cc3F)ccnc2cc1OCCCN1CCC(C)CC1	0.11	0.25	0.12	0.19
COc1cc2c(Oc3ccc(NC(=O)c4nn(-c5ccc(F)cc5)c(=O)n4C)cc3F)ccnc2cc1OCCCN1CCCC1	0.97	0.73	0.68	0.76
COc1cc2c(Oc3ccc(NC(=O)c4nn(-c5ccccc5)c(=O)n4C)cc3F)ccnc2cc1OCCCN1CCOCC1	1.46	1.7	0.7	0.95
COc1cc2c(Oc3ccc(NC(=O)c4nn(-c5ccccc5OC(F)(F)F)c(=O)n4C)cc3F)ccnc2cc1OCCCN1CCN(C)CC1	0.18	0.2	0.09	0.02
COc1cc2c(Oc3ccc(NC(=O)c4nn(-c5ccccc5OC(F)(F)F)c(=O)n4C)cc3F)ccnc2cc1OCCCN1CCC(C)CC1	0.19	0.35	0.18	0.095
COc1cc2c(Oc3ccc(NC(=O)c4nn(-c5ccc(OC(F)F)cc5)c(=O)n4C)cc3F)ccnc2cc1OCCCN1CCN(C)CC1	0.22	0.29	0.29	0.14
COc1cc2c(Oc3ccc(NC(=O)c4nn(-c5cccc(F)c5)c(=O)n4C)cc3F)ccnc2cc1OCCCN1CCC(C)CC1	0.4	0.29	0.44	0.2

SMILES	IC50 [1] [µM]	IC50 [2] [µM]	IC50 [3] [µM]	IC50 [4] [µM]
COc1cc2c(Oc3ccc(NC(=O)c4nn(-c5ccc(Cl)cc5Cl)c(=O)n4C)cc3F)ccnc2cc1OCCCN1CCN(C)CC1	0.3	0.24	0.25	0.18
COc1cc2c(Oc3ccc(NC(=O)c4nn(-c5ccc(F)cc5)c(=O)n4C)cc3F)ccnc2cc1OCCCN1CCCCC1	0.4	0.58	0.35	0.4
COc1cc2c(Oc3ccc(NC(=O)c4nn(-c5ccc(OC(F)F)cc5)c(=O)n4C)cc3F)ccnc2cc1OCCCN1CCC(C)CC1	0.19	0.25	0.12	0.22
COc1cc2c(Oc3ccc(NC(=O)c4nn(-c5ccccc5Cl)c(=O)n4C4CC4)cc3F)ccnc2cc1OCCCN1CCC(C)CC1	0.14	0.16	0.2	0.11
COc1cc2c(Oc3ccc(NC(=O)c4nn(-c5c(C)cccc5C)c(=O)n4C)cc3F)ccnc2cc1OCCCN1CCC(C)CC1	2.68	3.22	4.55	2.23
CCn1c(C(=O)Nc2ccc(Oc3ccnc4cc(OCCCN5CCN(C)CC5)c(OC)cc34)c(F)c2)nn(-c2ccccc2OC(F)(F)F)c1=O	0.15	0.25	0.2	0.057
COc1cc2c(Oc3ccc(NC(=O)c4nn(-c5cccc(F)c5)c(=O)n4C)cc3F)ccnc2cc1OCCCN1CCCCC1	0.43	0.35	0.38	0.33
COc1cc2c(Oc3ccc(NC(=O)c4nn(-c5ccccc5Cl)c(=O)n4C)cc3F)ccnc2cc1OCCCN1CCN(C)CC1	0.17	0.34	0.16	0.088
COc1cc2c(Oc3ccc(NC(=O)c4nn(-c5ccccc5OC(F)(F)F)c(=O)n4C4CC4)cc3F)ccnc2cc1OCCCN1CCC(C)CC1	0.11	0.24	0.12	0.1
COc1cc2c(Oc3ccc(NC(=O)c4nn(-c5ccc(F)cc5)c(=O)n4C)cc3F)ccnc2cc1OCCCN1CCC(C)CC1	0.33	0.24	0.41	0.31
COc1cc2c(Oc3ccc(NC(=O)c4nn(-c5ccccc5)c(=O)n4C)cc3F)ccnc2cc1OCCCN1CCN(C)CC1	0.65	0.62	0.46	0.56
COc1cc2c(Oc3ccc(NC(=O)c4nn(-c5ccc(F)cc5)c(=O)n4C)cc3F)ccnc2cc1OCCCN1CCN(C)CC1	0.25	0.37	0.24	0.35
COc1cc2c(Oc3ccc(NC(=O)c4nn(-c5c(C)cccc5C)c(=O)n4C)cc3F)ccnc2cc1OCCCN1CCCCC1	1.7	3.01	2	1.85
COc1ccc(-n2nc(C(=O)Nc3ccc(Oc4ccnc5cc(OCCCN6CCC(C)CC6)c(OC)cc45)c(F)c3)n(C)c2=O)cc1	1.43	2.4	0.62	0.59
COc1cc2c(Oc3ccc(NC(=O)c4nn(-c5ccccc5Cl)c(=O)n4C)cc3F)ccnc2cc1OCCCN1CCCCC1	0.18	0.3	0.19	0.22
COc1cc2c(Oc3ccc(NC(=O)c4nn(-c5ccc(Cl)cc5Cl)c(=O)n4C)cc3F)ccnc2cc1OCCCN1CCC(C)CC1	0.18	0.45	0.35	0.4
COc1cc2c(Oc3ccc(NC(=O)c4nn(-c5c(C)cccc5C)c(=O)n4C)cc3F)ccnc2cc1OCCCN1CCN(C)CC1	1.26	2.4	0.98	1.66
